Data: patent US10392368B2, “Pyrazolo and triazolo bicyclic compounds as JAK kinase inhibitors” (THERAVANCE BIOPHARMA R&D IP, LLC, priority 2017, dated 2019)
Read-outs that look alike come from different tables or passages of the source.

Columns and labels:
[1] = tested on: IL-2 stimulated pSTAT5 in Tall-1 T cells; assay: Cellular JAK3 potency assay: inhibition of IL-2 stimulated pSTAT5 in Tall-1 T cells; format: cell-based, human; conditions: for IC50: Homo sapiens, read-out: Tall-1 (pIC50) (converted)
How it was run: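 Tall-1 human T cells (45,000/well) in phenol red-free DMEM with 10% FBS were preincubated with compound 1 h at 37 °C, then stimulated with IL-2 (final 300 ng/ml) for 30 min. Lysate pSTAT5 read by AlphaLisa; IC50 from inhibition curves, reported as pIC50 (mean±SD).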

JAK1 = target: T1, JAK1 (Homo sapiens, UniProt P23458); assay: Biochemical JAK1 kinase assay (LanthaScreen); conditions: for Ki: read-out: JAK 1 (pKi) (converted)
T1 construct: GST; purchased Life Technologies
How it was run: (§1)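 GST-tagged JAK enzyme and GFP-STAT1 peptide preincubated with compound 1 h, then ATP added; 1 h kinase reaction at ambient temperature, pH 7.5 HEPES/MgCl2 buffer, 1% DMSO. Tb-anti-pSTAT1 (pTyr701) TR-FRET, 520/495 nm ratio; IC50 from 4-parameter fit, converted to pKi via Cheng-Prusoff.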

JAK3 = target: T2, JAK3 (Homo sapiens, UniProt P52333); assay: Biochemical JAK3 kinase assay (LanthaScreen); set-up: GST; purchased Life Technologies; conditions: for Ki: read-out: JAK 3 (pKi) (converted)
T2 sequence (P52333 1-1124): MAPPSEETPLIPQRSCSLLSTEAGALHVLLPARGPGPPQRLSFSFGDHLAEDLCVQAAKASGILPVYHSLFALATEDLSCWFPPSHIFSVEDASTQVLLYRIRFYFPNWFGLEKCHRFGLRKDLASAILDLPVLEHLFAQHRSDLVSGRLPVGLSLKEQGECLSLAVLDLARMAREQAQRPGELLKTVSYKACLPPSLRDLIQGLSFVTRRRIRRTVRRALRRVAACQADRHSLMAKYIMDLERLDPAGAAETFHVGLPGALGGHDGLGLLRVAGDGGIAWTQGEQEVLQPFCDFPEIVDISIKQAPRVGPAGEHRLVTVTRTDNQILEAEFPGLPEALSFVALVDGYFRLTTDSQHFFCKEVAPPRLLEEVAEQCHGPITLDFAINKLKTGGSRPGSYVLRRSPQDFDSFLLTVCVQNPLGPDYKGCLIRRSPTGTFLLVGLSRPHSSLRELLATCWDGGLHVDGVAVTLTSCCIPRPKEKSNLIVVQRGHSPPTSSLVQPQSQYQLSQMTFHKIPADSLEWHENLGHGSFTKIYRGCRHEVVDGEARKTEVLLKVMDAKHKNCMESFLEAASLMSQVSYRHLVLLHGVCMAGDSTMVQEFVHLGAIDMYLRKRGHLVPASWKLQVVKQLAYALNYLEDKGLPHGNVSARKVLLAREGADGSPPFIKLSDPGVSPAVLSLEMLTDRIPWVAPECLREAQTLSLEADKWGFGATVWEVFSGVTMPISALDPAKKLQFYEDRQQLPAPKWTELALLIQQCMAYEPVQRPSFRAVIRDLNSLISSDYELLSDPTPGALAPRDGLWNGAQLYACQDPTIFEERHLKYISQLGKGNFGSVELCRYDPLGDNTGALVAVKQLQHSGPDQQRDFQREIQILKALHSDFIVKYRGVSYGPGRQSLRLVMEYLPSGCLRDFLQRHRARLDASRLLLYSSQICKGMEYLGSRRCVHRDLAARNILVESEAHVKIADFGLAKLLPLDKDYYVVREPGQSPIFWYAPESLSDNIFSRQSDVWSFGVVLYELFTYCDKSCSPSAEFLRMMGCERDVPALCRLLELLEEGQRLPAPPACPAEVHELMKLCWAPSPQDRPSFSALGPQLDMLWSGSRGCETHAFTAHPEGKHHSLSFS
How it was run: as §1

Tyk2 = target: T3, Tyk2 (Homo sapiens, UniProt P29597); assay: Biochemical Tyk2 kinase assay (LanthaScreen); conditions: for Ki: read-out: Tyk 2 (pKi) (converted)
T3 construct: GST; purchased Life Technologies
How it was run: as §1

JAK2 = target: T4, JAK2 (Homo sapiens, UniProt O60674); assay: Biochemical JAK2 kinase assay (LanthaScreen); conditions: for Ki: read-out: JAK 2 (pKi) (converted)
T4 construct: GST; purchased Life Technologies
How it was run: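 GST-tagged recombinant JAK2 pre-incubated 1 h at ambient temperature with compound and GFP-STAT1 peptide in HEPES pH 7.5/MgCl2 buffer, then ATP added for a 1 h reaction with 1% DMSO. TR-FRET read after EDTA and Tb-anti-pSTAT1 (pTyr701) addition; IC50 from 4-parameter fit, converted to pKi by Cheng-Prusoff.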

[2] = TALL-1, IL-2 stimulated pSTAT5, Tall-1 T cells
[3] = selectivity JAK3 over JAK1, difference of pKi
[4] = IL-2 stimulated pSTAT5, Tall-1 T cells
[5] = IL-2 stimulated pSTAT5 in Tall-1 T cells
[6] = selectivity: difference of pKi JAK3 and pKi JAK1
[7] = TALL-1, IL-2 stimulated pSTAT5 in Tall-1 T cells

T4 sequence (O60674 whole entry): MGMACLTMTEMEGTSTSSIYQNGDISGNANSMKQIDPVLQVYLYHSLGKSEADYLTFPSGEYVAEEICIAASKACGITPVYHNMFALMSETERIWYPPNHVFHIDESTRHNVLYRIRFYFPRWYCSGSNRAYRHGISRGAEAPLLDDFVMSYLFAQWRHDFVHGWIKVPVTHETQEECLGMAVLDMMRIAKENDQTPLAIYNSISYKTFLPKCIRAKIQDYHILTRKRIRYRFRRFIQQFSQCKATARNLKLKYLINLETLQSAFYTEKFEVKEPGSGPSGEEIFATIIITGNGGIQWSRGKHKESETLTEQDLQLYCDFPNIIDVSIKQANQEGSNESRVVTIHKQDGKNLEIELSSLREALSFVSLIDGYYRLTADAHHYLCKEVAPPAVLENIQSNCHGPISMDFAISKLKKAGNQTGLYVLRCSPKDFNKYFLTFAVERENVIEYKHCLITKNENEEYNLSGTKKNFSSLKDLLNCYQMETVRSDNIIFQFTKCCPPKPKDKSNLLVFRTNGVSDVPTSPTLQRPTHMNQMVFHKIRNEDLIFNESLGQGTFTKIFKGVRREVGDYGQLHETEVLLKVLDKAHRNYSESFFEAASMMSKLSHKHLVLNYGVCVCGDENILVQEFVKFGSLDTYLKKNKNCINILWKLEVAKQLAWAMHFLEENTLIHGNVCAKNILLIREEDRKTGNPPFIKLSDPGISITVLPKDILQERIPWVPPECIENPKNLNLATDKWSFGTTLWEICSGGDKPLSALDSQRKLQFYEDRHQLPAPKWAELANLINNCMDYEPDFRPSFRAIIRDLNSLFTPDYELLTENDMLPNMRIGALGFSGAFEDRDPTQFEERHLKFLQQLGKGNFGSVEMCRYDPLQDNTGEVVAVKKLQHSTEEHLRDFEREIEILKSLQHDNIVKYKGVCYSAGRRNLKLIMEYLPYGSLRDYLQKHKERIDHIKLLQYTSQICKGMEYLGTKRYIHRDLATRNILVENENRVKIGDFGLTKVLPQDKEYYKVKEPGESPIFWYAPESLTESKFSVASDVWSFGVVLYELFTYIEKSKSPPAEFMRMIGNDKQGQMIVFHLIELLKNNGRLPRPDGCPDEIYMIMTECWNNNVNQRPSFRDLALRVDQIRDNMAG
T1 sequence (P23458 whole entry): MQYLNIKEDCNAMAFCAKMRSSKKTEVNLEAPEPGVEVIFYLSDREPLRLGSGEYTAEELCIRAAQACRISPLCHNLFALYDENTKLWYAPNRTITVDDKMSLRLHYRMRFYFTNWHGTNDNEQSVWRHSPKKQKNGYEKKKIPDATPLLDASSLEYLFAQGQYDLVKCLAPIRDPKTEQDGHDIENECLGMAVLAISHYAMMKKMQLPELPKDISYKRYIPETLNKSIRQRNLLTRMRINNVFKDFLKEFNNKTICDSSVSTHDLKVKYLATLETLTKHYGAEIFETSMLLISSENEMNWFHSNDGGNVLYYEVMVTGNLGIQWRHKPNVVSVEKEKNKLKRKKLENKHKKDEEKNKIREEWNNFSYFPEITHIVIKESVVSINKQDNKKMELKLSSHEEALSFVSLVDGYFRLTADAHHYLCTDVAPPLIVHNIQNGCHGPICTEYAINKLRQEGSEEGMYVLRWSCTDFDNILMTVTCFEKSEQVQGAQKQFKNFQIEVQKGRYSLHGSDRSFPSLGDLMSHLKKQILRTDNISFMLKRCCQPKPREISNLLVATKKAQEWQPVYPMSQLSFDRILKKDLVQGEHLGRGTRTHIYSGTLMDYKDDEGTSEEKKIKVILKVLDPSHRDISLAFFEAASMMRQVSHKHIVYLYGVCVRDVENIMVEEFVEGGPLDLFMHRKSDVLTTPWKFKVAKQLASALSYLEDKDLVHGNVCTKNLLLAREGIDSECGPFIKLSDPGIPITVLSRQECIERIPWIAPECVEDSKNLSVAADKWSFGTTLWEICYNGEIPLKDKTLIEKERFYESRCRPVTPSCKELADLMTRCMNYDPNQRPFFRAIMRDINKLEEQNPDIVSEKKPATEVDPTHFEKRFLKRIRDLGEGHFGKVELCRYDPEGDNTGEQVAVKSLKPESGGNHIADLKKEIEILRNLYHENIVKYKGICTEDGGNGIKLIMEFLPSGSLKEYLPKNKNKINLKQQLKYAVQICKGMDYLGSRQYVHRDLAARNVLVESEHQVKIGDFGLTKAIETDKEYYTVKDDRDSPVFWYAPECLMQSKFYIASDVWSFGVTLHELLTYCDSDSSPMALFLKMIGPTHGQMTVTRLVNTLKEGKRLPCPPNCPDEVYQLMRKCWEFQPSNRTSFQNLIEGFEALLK
T3 sequence (P29597 whole entry): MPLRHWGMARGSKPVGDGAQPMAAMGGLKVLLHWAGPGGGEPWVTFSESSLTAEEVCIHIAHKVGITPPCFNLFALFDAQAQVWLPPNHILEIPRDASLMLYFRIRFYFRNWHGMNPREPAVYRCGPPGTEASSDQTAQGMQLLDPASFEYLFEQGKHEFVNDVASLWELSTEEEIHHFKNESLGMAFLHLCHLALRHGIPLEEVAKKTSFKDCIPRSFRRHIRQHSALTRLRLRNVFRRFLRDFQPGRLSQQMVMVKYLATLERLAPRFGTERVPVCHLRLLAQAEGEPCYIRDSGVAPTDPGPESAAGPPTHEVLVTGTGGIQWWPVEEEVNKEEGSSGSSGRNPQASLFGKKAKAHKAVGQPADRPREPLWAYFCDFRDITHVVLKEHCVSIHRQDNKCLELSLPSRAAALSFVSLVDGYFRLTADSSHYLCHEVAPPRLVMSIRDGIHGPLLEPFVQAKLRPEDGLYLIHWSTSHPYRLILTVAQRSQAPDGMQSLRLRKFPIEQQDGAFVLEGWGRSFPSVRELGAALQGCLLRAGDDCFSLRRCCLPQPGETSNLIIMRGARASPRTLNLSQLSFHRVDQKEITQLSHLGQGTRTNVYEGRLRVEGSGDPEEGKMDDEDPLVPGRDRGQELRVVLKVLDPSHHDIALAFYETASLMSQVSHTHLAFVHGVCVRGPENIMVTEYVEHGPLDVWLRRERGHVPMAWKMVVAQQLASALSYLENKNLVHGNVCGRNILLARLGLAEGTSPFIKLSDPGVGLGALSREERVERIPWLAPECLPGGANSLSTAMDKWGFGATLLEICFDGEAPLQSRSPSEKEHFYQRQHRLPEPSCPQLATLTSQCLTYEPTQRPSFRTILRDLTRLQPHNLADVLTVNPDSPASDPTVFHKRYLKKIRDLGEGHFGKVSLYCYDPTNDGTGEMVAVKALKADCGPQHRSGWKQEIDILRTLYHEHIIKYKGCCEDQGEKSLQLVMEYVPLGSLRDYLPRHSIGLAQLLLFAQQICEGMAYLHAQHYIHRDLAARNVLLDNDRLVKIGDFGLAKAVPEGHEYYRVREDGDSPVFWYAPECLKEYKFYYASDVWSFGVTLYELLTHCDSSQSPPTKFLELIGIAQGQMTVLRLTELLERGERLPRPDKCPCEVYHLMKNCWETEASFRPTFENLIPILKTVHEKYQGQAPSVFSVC

Row | Compound | IC50 [1, 2] [nM] | Ki (JAK1) [nM] | Ki (JAK3) [nM] | JAK3 (pKi)-JAK1 (pKi) (JAK3; [3]) | Ki (Tyk2) [nM] | Ki (JAK2) [nM] | Tall-1 (pIC50) [1, 4] | JAK 1 (pKi) (JAK1) | JAK 3 (pKi) (JAK3) | Tyk 2 (pKi) (Tyk2) | JAK 2 (pKi) (JAK2) | Tall-1 (pIC50) [1, 5] | JAK3 (pKi)-JAK1 (pKi) (JAK3; [6]) | IC50 [1, 7] [nM]
1 | C=CC(=O)N1CC(C(=O)Nc2cc(-c3ccc(O)cc3)cc3[nH]ncc23)C1 [Compound 12-46] | 31.6 to 200 | > 100 | < 0.1 | A (a value of 3 or above) | > 100 | 10 to 100 | – | – | – | – | – | – | – | –
2 | C=CC(=O)N1CCC(C)(Nc2nc(-c3ccc(O)cc3)cc3[nH]ncc23)CC1 [Compound 7-13] | – | – | – | A (a value of 3 or above) | – | – | A (a pIC50 value≥7.5 (IC50≤32 nM)) | E (a pKi value of 7 or below (Ki of 100 nM or above)) | A (a pKi value≥10 (Ki≤0.1 nM)) | E (a pKi value of 7 or below (Ki of 100 nM or above)) | D (a pKi value between 7 and 8 (Ki between 100 nM and 10 nM)) | – | – | –
3 | C=CC(=O)N1CCC(Oc2cc(-c3ccc(O)c(Cl)c3)cc3[nH]ncc23)CC1 [Compound 6-13] | – | – | – | B (a value of 2.3 to 3) | – | – | A (a pIC50 value≥7.5 (IC50≤32 nM)) | E (a pKi value of 7 or below (Ki of 100 nM or above)) | B (a pKi value between 9 and 10 (Ki between 1 nM and 0.1 nM)) | E (a pKi value of 7 or below (Ki of 100 nM or above)) | D (a pKi value between 7 and 8 (Ki between 100 nM and 10 nM)) | – | – | –
4 | C=CC(=O)N1CCSC[C@H]1C(=O)Nc1cc(-c2ccc(O)cc2)cc2[nH]ncc12 [Compound 12-64] | < 31.6 | > 100 | < 0.1 | A (a value of 3 or above) | > 100 | > 100 | – | – | – | – | – | – | – | –
5 | CN(C)C/C=C/C(=O)N1CC(F)(COc2nc(-c3ccc(O)c(F)c3)nc3[nH]ncc23)C1 [Compound 3-51] | – | – | – | – | – | – | – | E (a pKi value of 7 or below (Ki of 100 nM or above)) | B (a pKi value between 9 and 10 (Ki between 1 nM and 0.1 nM)) | E (a pKi value of 7 or below (Ki of 100 nM or above)) | E (a pKi value of 7 or below (Ki of 100 nM or above)) | C (a pIC50 value between 6 and 6.7 (IC50 between 1 μM and 200 nM)) | A (a value of 3 or above) | –
6 | CN(C)C/C=C/C(=O)N1CC(Oc2cc(-c3ccc(O)c(Cl)c3)cc3[nH]ncc23)(C(F)F)C1 [Compound 5-16] | – | – | – | – | – | – | – | E (a pKi value of 7 or below (Ki of 100 nM or above)) | A (a pKi value≥10 (Ki≤0.1 nM)) | E (a pKi value of 7 or below (Ki of 100 nM or above)) | 6 | A (a pIC50 value≥7.5 (IC50≤32 nM)) | A (a value of 3 or above) | –
7 | CN(C/C=C/C(=O)N1CC(COc2cc(-c3ccc(O)cc3)cc3[nH]ncc23)C1)C1CCC1 [Compound 3-117] | – | > 100 | 0.1 to 1 | – | > 100 | 10 to 100 | – | – | – | – | – | – | B (a value of 2.3 to 3) | 31.6 to 200
8 | C=CC(=O)N1CC(COc2cc(-c3ccc(O)c(F)c3)cc3[nH]ncc23)(OC)C1 [Compound 3-75] | – | – | – | – | – | – | – | E (a pKi value of 7 or below (Ki of 100 nM or above)) | B (a pKi value between 9 and 10 (Ki between 1 nM and 0.1 nM)) | E (a pKi value of 7 or below (Ki of 100 nM or above)) | E (a pKi value of 7 or below (Ki of 100 nM or above)) | A (a pIC50 value≥7.5 (IC50≤32 nM)) | A (a value of 3 or above) | –
9 | C=CC(=O)N1C[C@@H](Oc2cc(-c3ccc(O)cc3)cc3[nH]ncc23)C[C@H]1C [Compound 1-11] | – | > 100 | < 0.1 | – | > 100 | > 100 | – | – | – | – | – | – | A (a value of 3 or above) | < 31.6
10 | C=CC(=O)N1CC(CSc2cc(-c3ccc(O)c(F)c3)cc3[nH]ncc23)C1 [Compound 13-7] | – | – | – | A (a value of 3 or above) | – | – | B (a pIC50 value between 6.7 (included) and 7.5 (IC50 between 200 nM and 32 nM)) | E (a pKi value of 7 or below (Ki of 100 nM or above)) | A (a pKi value≥10 (Ki≤0.1 nM)) | E (a pKi value of 7 or below (Ki of 100 nM or above)) | D (a pKi value between 7 and 8 (Ki between 100 nM and 10 nM)) | – | – | –
11 | Cc1cc(O)c(F)cc1-c1cc(O[C@H]2CCN(C(=O)/C=C/CN(C)C)C2)c2cn[nH]c2c1 [Compound 1-29] | – | 10 to 100 | 0.1 to 1 | – | > 100 | 10 to 100 | – | – | – | – | – | – | B (a value of 2.3 to 3) | 31.6 to 200
12 | C=CC(=O)N1CC(C#N)(COc2cc(-c3ccc(O)cc3)cc3[nH]ncc23)C1 [Compound 3-20] | – | – | – | – | – | – | – | E (a pKi value of 7 or below (Ki of 100 nM or above)) | B (a pKi value between 9 and 10 (Ki between 1 nM and 0.1 nM)) | E (a pKi value of 7 or below (Ki of 100 nM or above)) | D (a pKi value between 7 and 8 (Ki between 100 nM and 10 nM)) | B (a pIC50 value between 6.7 (included) and 7.5 (IC50 between 200 nM and 32 nM)) | B (a value of 2.3 to 3) | –
13 | C=CC(=O)N1CC(F)(COc2nc(-c3ccc(O)c(F)c3)nc3[nH]ncc23)C1 [Compound 3-93] | – | > 100 | < 0.1 | – | > 100 | > 100 | – | – | – | – | – | – | A (a value of 3 or above) | < 31.6
14 | CN(C)C/C=C/C(=O)N1CCC(C)(Nc2cc(-c3ccc(O)c(Cl)c3)cc3[nH]ncc23)CC1 [Compound 7-8] | – | – | – | A (a value of 3 or above) | – | – | B (a pIC50 value between 6.7 (included) and 7.5 (IC50 between 200 nM and 32 nM)) | E (a pKi value of 7 or below (Ki of 100 nM or above)) | A (a pKi value≥10 (Ki≤0.1 nM)) | E (a pKi value of 7 or below (Ki of 100 nM or above)) | E (a pKi value of 7 or below (Ki of 100 nM or above)) | – | – | –
